Measurements taken from PMC2206373, “Identification of an altered peptide ligand based on the endogenously presented, rheumatoid arthritis-associated, human cartilage glycoprotein-39(263–275) epitope: an MHC anchor variant peptide for immune modulation” (Arthritis Research & Therapy, 2007).
Like-named read-outs stand apart in the source and are kept apart here. Each block holds one compound with its values, some of them ahead of it. Non-standard residues stand in square brackets, D forms with d. Residues, ends and D or L forms follow the SMILES beside them. No end group written: not given here. Dip = N[C@H](C(=O)O)C(c1ccccc1)c1ccccc1; Tic = O=C(O)[C@@H]1Cc2ccccc2CN1

Assays:
HLA-DR4(B1*0401) = HLA-DR4(B1*0401) (Homo sapiens, UniProt P01903+P01911, A100K/A169T/F76Y/I96L/K127E/L162R/M171V/N62H/P40V/Q125Y/R42H/S133A/S149N/S66Y/V115G/V209L/W38E); assay: HLA-DR4 competition peptide binding assay; conditions: competition with biotinylated HA307-319 (Y309F) 50 nM, purified HLA-DR4 30 nM, pH 5, 48 h, room temperature
Experimental: HLA-DR bound marker peptide was separated from free marker peptide and the amount of bound marker peptide was detected and quantified by enhanced chemoluminescense. Inhibition curves were generated and the IC50 was determined. The concentration of competitor peptide inducing 50% inhibition of marker peptide binding was determined, and expressed as the 50% inhibitory concentration (IC50 in μM).

T cell hybridoma 5G11 = assay: T hybridoma 5G11 IL-2 response; type: cell-based, mouse; conditions: for T hybridoma (SI) 5G11: Figure 1, IL-2 production, duplicate or triplicate, background 29,203 counts, ±30% of WT response = super/partial agonist; for T hybridoma (SI) 5G11 / Hybridoma response (SI) 5G11: DRB1*0401 BLCL as APC; for Hybridoma response (SI) 5G11: IL-2 by ELISA after 48 h, peptide 10 μg/ml, SI > 2 positive
Experimental: (§1) The T cell hybridomas, provided by G Sonderstrup (Stanford, CA, USA), were generated as described. In brief, human CD4, HLA-DRA*101/HLA-DRB*0401 triple transgenic (HLA-DR4trg) mice (devoid of I-Aβ) were immunized in the footpad with 50 μg of purified HC gp-39 mixed in incomplete Freund's adjuvant (IFA). Draining lymph nodes were isolated and T-cell hybridomas were generated by polyethylene glycol fusion of primed and in vitro antigen-restimulated lymph node cells with the AKR BW5147 fusion partner. Following fusion, growth-positive hybridoma wells were screened for reactivity to HC gp-39 and a set of 55 peptides (16 amino acids in length) covering the entire HC gp-39 sequence. HLA-DR4(B1*0401)-restricted hybridomas responsive to both the HC gp-39 protein and the immunodominant epitope 263–275 of HC gp-39 (for example, 5G11, 8B12, 14G11 and 20H5) were cloned, subcloned, characterised and selected for further study.
(§2) HC gp-39-specific IL-2 production by T hybridomas was measured in wells of round-bottomed microtiter plates. Hybridoma cells (2 to 5 × 10^4) and irradiated APC (0.5 to 1 × 10^5; 12,000 to 16,000 RAD) from the B lymphoblastoid cell line (BLCL) carrying the DRB1*0401 specificity were incubated in 150 μl volumes. Antigen was added in 50 μl volumes to duplicate wells. After 48 h, 100 μl of the culture supernatant was assayed for IL-2 production using a sandwich ELISA with Pharmingen antibodies specific for mouse IL-2. The antigen sensitivity of the hybridomas to both peptide and protein was determined (Figure 2). […] In later assays, an excess of peptide or APL (10 μg/ml), inducing maximal responses in all hybridomas, was tested.

T cell hybridoma 8B12 = assay: T hybridoma 8B12 IL-2 response; type: cell-based, mouse; conditions: for T hybridoma (SI) 8B12: Figure 1, IL-2 production, duplicate or triplicate, background 16,288 counts, ±30% of WT response = super/partial agonist; for T hybridoma (SI) 8B12 / Hybridoma response (SI) 8B12: DRB1*0401 BLCL as APC; for Hybridoma 8B12 activation (IL-2 production) in words: Figure 1 experiment, compared with WT peptide; for Hybridoma response (SI) 8B12: IL-2 by ELISA after 48 h, peptide 10 μg/ml, SI > 2 positive
Experimental: as §1, §2

T cell hybridoma 14G11 = assay: T hybridoma 14G11 IL-2 response; type: cell-based, mouse; conditions: for T hybridoma (SI) 14G11: Figure 1, IL-2 production, duplicate or triplicate, background 7,152 counts, ±30% of WT response = super/partial agonist; for T hybridoma (SI) 14G11 / Hybridoma response (SI) 14G11: DRB1*0401 BLCL as APC; for Hybridoma 14G11 activation (IL-2 production) in words: Figure 1 experiment, compared with WT peptide; for Hybridoma response (SI) 14G11: IL-2 by ELISA after 48 h, peptide 10 μg/ml, SI > 2 positive
Experimental: as §1, §2

[1] = system: popliteal lymph node cells from HC gp-39(263–275)-immunized huCD4, HLA-DR4 transgenic mice; assay: Antigen-specific proliferation of popliteal lymph node cells from WT peptide-immunized mice; type: cell-based, mouse; conditions: for Ex vivo recall proliferative response in words: Figure 4a, WT peptide-immunized HLA-DR4trg mice; for Prol (SI): 96 h, tritiated thymidine, background 407 cpm, SI > 2 positive, SD not above 30%
Experimental: (§3) Mice, obtained from L Fugger (Oxford, UK), were immunized in the hind footpads with 2 × 50 μg of purified recombinant HC gp-39, with 2 × 100 μg of the WT peptide or with 2 × 100 μg of the APL (F265(Dip); compound 28; Figure 1) mixed in IFA. Seven days later, popliteal lymph node cell suspensions (1 to 2 × 10^5 cells/well) were stimulated in vitro with HC gp-39 (50, 10 or 2 μg/ml), HC gp-39(263–275) or APL (10, 2 and 0.4 μg/ml). At 96 h, 50 μl of culture medium was harvested for analysis of antigen-specific cytokine production using Luminex technology (mouse cytokine 18 Plex Panel, catalogue no. 171-F11181, Biorad, Bio-Rad Laboratories, Hercules, CA, USA). In addition, cultures were labelled with tritiated thymidine (for 18 h) and antigen-specific proliferation was determined. We state that all animal experimentation received ethics approval and animals were treated according to the recognized guidelines.

[2] = system: popliteal lymph node cells from HC gp-39(263–275)-immunized huCD4, HLA-DR4 transgenic mice; assay: Antigen-specific cytokine production of popliteal lymph node cells from WT peptide-immunized mice; type: cell-based, mouse; conditions: for Ex vivo recall IFNγ production in words / Ex vivo recall Mip1α production in words / Ex vivo recall RANTES production in words: Figure 4a, WT peptide-immunized HLA-DR4trg mice; for IFNγ concentration / MIP1α concentration / RANTES concentration: 96 h supernatant, Luminex
Experimental: as §3

[3] = system: popliteal lymph node cells from F265(Dip)-immunized HLA-DR4trg mice; assay: Antigen-specific cytokine production of popliteal lymph node cells from F265(Dip)-immunized mice; type: cell-based, mouse; conditions: Figure 4b
Experimental: as §3

[4] = system: popliteal lymph node cells from F265(Dip)-immunized HLA-DR4trg mice; assay: Antigen-specific proliferation of popliteal lymph node cells from F265(Dip)-immunized mice; type: cell-based, mouse; conditions: Figure 4b
Experimental: as §3

T cell hybridoma 20H5 = assay: T hybridoma 20H5 IL-2 response; type: cell-based, mouse; conditions: for Hybridoma response (SI) 20H5: IL-2 by ELISA after 48 h, peptide 10 μg/ml, DRB1*0401 BLCL as APC, SI > 2 positive
Experimental: as §1, §2

[5] = Figure 1, read-out: DRB1*0401 binding IC50
[6] = Table 1, geometric mean of two experiments, read-out: HLA-DR binding IC50
[7] = Table 1, background 8,147 counts, representative of at least three experiments
[8] = Table 1, background 7,470 counts, representative of at least three experiments
[9] = Table 1, background 8,598 counts, representative of at least three experiments
[10] = Table 1, background 35,749 counts, representative of at least three experiments

Compound: LASSETGVG [Compound 8]
IC50 (HLA-DR4(B1*0401); [6]): > 100000 nM | Hybridoma response (SI) 5G11 (T cell hybridoma 5G11; [7]): 1 SI | Hybridoma response (SI) 8B12 (T cell hybridoma 8B12; [8]): 1 SI | Hybridoma response (SI) 14G11 (T cell hybridoma 14G11; [9]): 1 SI | Hybridoma response (SI) 20H5 (T cell hybridoma 20H5; [10]): 1 SI

Compound: RSATLASSETGVG [Compound 12]
IC50 (HLA-DR4(B1*0401); Table 2, read-out: HLA-DR binding IC50): > 35000 nM | Recognition by hybridoma 5G11 in words (T cell hybridoma 5G11; Table 2): not recognized | Hybridoma response (SI) 5G11 (T cell hybridoma 5G11; Table 2, background 17,238 counts, SD not above 15%): 2 SI | Reactivity of hybridoma 8B12 in words (T cell hybridoma 8B12; Table 2): affected to a lesser extent | Hybridoma response (SI) 8B12 (T cell hybridoma 8B12; Table 2, background 8,773 counts, SD not above 15%): 6 SI | Recognition by hybridoma 14G11 in words (T cell hybridoma 14G11; Table 2): not recognized | Hybridoma response (SI) 14G11 (T cell hybridoma 14G11; Table 2, background 10,131 counts, SD not above 15%): 2 SI | Reactivity of hybridoma 20H5 in words (T cell hybridoma 20H5; Table 2): only slightly affected | Hybridoma response (SI) 20H5 (T cell hybridoma 20H5; Table 2, background 290,666 counts, SD not above 15%): 4 SI | Polyclonal response (proliferation and cytokine production) in words ([1]; Table 3, lymph node cells of WT peptide-immunized HLA-DR4trg mice): did not elicit a significant response | Prol (SI) ([1]; peptide 2 μg/ml): 1 SI | Prol (SI) ([1]; peptide 10 μg/ml): 3 SI | IFNγ concentration ([2]; peptide 2 μg/ml): <5 pg/mL | MIP1α concentration ([2]; peptide 2 μg/ml): <24 pg/mL | RANTES concentration ([2]; peptide 2 μg/ml): <6 pg/mL | IFNγ concentration ([2]; peptide 10 μg/ml): <5 pg/mL | MIP1α concentration ([2]; peptide 10 μg/ml): 27 pg/mL | RANTES concentration ([2]; peptide 10 μg/ml): 9 pg/mL

Compound: TLASSETGVG [Compound 7]
IC50 (HLA-DR4(B1*0401); [6]): > 100000 nM | Hybridoma response (SI) 5G11 (T cell hybridoma 5G11; [7]): 1 SI | Hybridoma response (SI) 8B12 (T cell hybridoma 8B12; [8]): 1 SI | Hybridoma response (SI) 14G11 (T cell hybridoma 14G11; [9]): 1 SI | Hybridoma response (SI) 20H5 (T cell hybridoma 20H5; [10]): 5 SI

Compound: human cartilage glycoprotein-39 [HC gp-39 protein]
In vitro recall proliferative response in words [4]: somewhat less | In vitro recall IFNγ production in words [3]: failed to induce significant levels | In vitro recall Mip1α production in words [3]: failed to induce significant levels | In vitro recall RANTES production in words [3]: failed to induce significant levels

Continued, in another order:

IC50 (HLA-DR4(B1*0401); [5]): 21 nM
Compound: CC(C)C[C@H](NC(=O)[C@@H](NC(=O)[C@@H]1Cc2ccccc2CN1C(=O)[C@H](CO)NC(=O)[C@@H](N)CCCNC(=N)N)[C@@H](C)O)C(=O)N[C@@H](C)C(=O)N[C@@H](CO)C(=O)N[C@@H](CO)C(=O)N[C@@H](CCC(=O)O)C(=O)N[C@H](C(=O)NCC(=O)N[C@H](C(=O)NCC(=O)O)C(C)C)[C@@H](C)O [Compound 27] (H-RS[Tic]TLASSETGVG-OH)
T hybridoma (SI) 5G11 (T cell hybridoma 5G11): 12 SI | Hybridoma 5G11 activation (IL-2 production) in words (T cell hybridoma 5G11; Figure 1 experiment, compared with WT peptide): partial activation | T hybridoma (SI) 8B12 (T cell hybridoma 8B12): 8 SI | Hybridoma 8B12 activation (IL-2 production) in words (T cell hybridoma 8B12): partial activation | T hybridoma (SI) 14G11 (T cell hybridoma 14G11): 21 SI | Hybridoma 14G11 activation (IL-2 production) in words (T cell hybridoma 14G11): partial activation | Ex vivo recall proliferative response in words [1]: comparable proliferative responses | Ex vivo recall IFNγ production in words [2]: increased production | Ex vivo recall Mip1α production in words [2]: increased production | Ex vivo recall RANTES production in words [2]: increased production | In vitro recall IFNγ production in words [3]: failed to induce significant levels | In vitro recall Mip1α production in words [3]: failed to induce significant levels | In vitro recall RANTES production in words [3]: failed to induce significant levels

IC50 (HLA-DR4(B1*0401); [5]): 10 nM
Compound: CC(C)C[C@H](NC(=O)[C@@H](NC(=O)[C@@H](NC(=O)[C@H](CO)NC(=O)[C@@H](N)CCCNC(=N)N)C(c1ccccc1)c1ccccc1)[C@@H](C)O)C(=O)N[C@@H](C)C(=O)N[C@@H](CO)C(=O)N[C@@H](CO)C(=O)N[C@@H](CCC(=O)O)C(=O)N[C@H](C(=O)NCC(=O)N[C@H](C(=O)NCC(=O)O)C(C)C)[C@@H](C)O [Compound 28] (H-RS[Dip]TLASSETGVG-OH)
T hybridoma (SI) 5G11 (T cell hybridoma 5G11): 29 SI | T hybridoma (SI) 8B12 (T cell hybridoma 8B12): 5 SI | Hybridoma 8B12 activation (IL-2 production) in words (T cell hybridoma 8B12): partial activation | T hybridoma (SI) 14G11 (T cell hybridoma 14G11): 6 SI | Hybridoma 14G11 activation (IL-2 production) in words (T cell hybridoma 14G11): partial activation | Ex vivo recall proliferative response in words [1]: comparable proliferative responses | Ex vivo recall IFNγ production in words [2]: lesser | Ex vivo recall Mip1α production in words [2]: unaltered | Ex vivo recall RANTES production in words [2]: unaltered | In vitro recall proliferative response in words [4]: good proliferative activity | In vitro recall IFNγ production in words [3]: barely detectable | In vitro recall Mip1α production in words [3]: barely detectable | In vitro recall RANTES production in words [3]: barely detectable
